Results from paper PMC8621857, “Structural Insights into the Azole Resistance of the Candida albicans Darlington Strain Using Saccharomyces cerevisiae Lanosterol 14α-Demethylase as a Surrogate” (Journal of Fungi, 2021).
Where two headings read alike, the source gives them in different places.

Legend:
[1] = test system: S. cerevisiae strain AD2Δ (native wild-type ScLDM); assay: Broth microdilution drug susceptibility assay (MIC80), host strain AD2Δ; format: cell-based; settings: Saccharomyces cerevisiae; strain AD2Δ; 48 h, 30 °C, pH 6.8; mean (± SEM), n = 3; read-out: MIC80
Experimental: Yeast strains used in this study (Supplementary Table S1) were prepared using the AD2Δ strain of S. cerevisiae as a host, using an established protocol. AD2Δ is hypersensitive to xenobiotics due to the deletion of seven major ABC transporters, including those responsible for the efflux of azole drugs. It is also deleted of the PDR3 transcriptional regulator, but contains the gain-of-function Pdr1-3 transcriptional regulator mutation that leads to constitutive overexpression from the PDR5 locus.
(§1) Azole susceptibility was measured as the mean drug concentration required to inhibit 80% of yeast growth (MIC80) compared to a non-drug control, using a standard broth microdilution assay. Serial dilutions of short- (FLC and VCZ), medium- (VT-1161), and long-tailed (ITC and PCZ) azole drugs, and the control drugs micafungin (MCF) and amphotericin B (AMB), were prepared in a 96-well microtiter plate in complete synthetic media lacking uracil, buffered to pH 6.8 [34]. Control and test cells were seeded at an optical density of 600 nm (OD600) of 0.005 (~1.5 × 10^4 colony forming units). After incubation for 48 h at 30 °C with constant agitation (200 rpm), the OD600 nm of each well was measured using a Synergy 2 multi-mode plate reader (BioTek Instruments, Winooski, VT, USA). The experiment was repeated three times (a total of nine measurements for the response of each strain to each drug). GraphPad Prism 5.0 software was used for statistical analysis, using a one-way analysis of variance with a Bonferroni post-hoc test. The statistical significance of comparisons was accepted when p < 0.05.

[2] = test system: S. cerevisiae strain AD3Δ ScErg11 I471T expressing ScLDM6×His I471T; assay: Broth microdilution drug susceptibility assay (MIC80), strain AD3Δ ScErg11 I471T; format: cell-based, Saccharomyces cerevisiae; settings: for MIC80: Saccharomyces cerevisiae, 48 h, 30 °C, pH 6.8, mean (± SEM), n = 3; for MIC80 / MIC80/Relative Amount of ScLDM6×His / fold-resistance based on the relative amount of recombinant enzyme compared with strain AD3Δ: strain I471T; for increased susceptibility compared with AD3Δ: strain AD3Δ ScErg11 I471T, not corrected for expression; for MIC80/Relative Amount of ScLDM6×His / fold-resistance based on the relative amount of recombinant enzyme compared with strain AD3Δ: relative expression 0.51
Experimental: (§2) The native ScERG11 gene in yeast cells containing mutant ScERG11-6×His constructs in the PDR5 locus was disrupted by homologous recombination with a cassette encoding the His1 selection marker and sequences homologous with the regions bordering the endogenous ScERG11 ORF to create strains AD3Δ ScErg11 Y140H, AD3Δ ScErg11 I471T and AD3Δ ScErg11Y140H I471T [43]. Transformants were selected on SD-His agar plates incubated at 30 °C for 48–72 h. Genomic DNA was extracted, and DNA sequencing as above was used to confirm deletion of the native ERG11. Strain AD3Δ ScErg11 (denoted as AD3Δ), which overexpresses wild-type ScLDM6×His from the PDR5 locus and has the native ScERG11 gene disrupted, was used as a control strain [43].
as §1

[3] = test system: S. cerevisiae strain AD3Δ ScErg11 Y140H I471T expressing ScLDM6×His Y140H I471T; assay: Broth microdilution drug susceptibility assay (MIC80), strain AD3Δ ScErg11 Y140H I471T; format: cell-based, Saccharomyces cerevisiae; settings: for MIC: Saccharomyces cerevisiae, strain Y140H + I471T, 48 h, 30 °C, pH 6.8, mean (± SEM), n = 3; for MIC80/Relative Amount of ScLDM6×His / fold-resistance based on the relative amount of recombinant enzyme compared with strain AD3Δ: strain Y140H+I471T, relative expression 0.41
Experimental: as §2, §1

[4] = test system: C. albicans Darlington strain; assay: Agarose disk diffusion assay, Darlington strain; format: cell-based, Candida albicans; settings: for effect of Mdr1 inhibitor MCC1189 on azole susceptibility: MCC1189 at 6 µM in the assay medium; for effect of Cdr1p inhibitor RC21v3 on azole susceptibility: RC21v3 at 6 µM in the assay medium; for agarose diffusion susceptibility: no efflux pump inhibitor
Experimental: Agarose diffusion assays were carried out as described previously using the Darlington strain of C. albicans (Pfizer Ltd., Sandwich, UK) and the control C. albicans database strain SC5314, which is not resistant to azoles. The Cdr1p-specific inhibitor RC21v3 and the CaMdr1p-specific inhibitor MCC1189 (MicroCombiChem, Wiesbaden, Germany), included in the assay medium at 6 µM, were used to investigate the contribution of efflux pumps to azole resistance in the Darlington strain [49, 50, 51].

[5] = target: T1, ScLDM6×His I471T (Saccharomyces cerevisiae, UniProt P10614, I471T); assay: Type II azole binding to affinity purified ScLDM6×His I471T; settings: for ΔAmax: type II binding
T1 construct: structurally aligned mutations in recombinant hexahistidine-tagged full-length Saccharomyces cerevisiae LDM6×His (ScLDM6×His); 6×His (hexahistidine) (C); made in house; host or cells: Saccharomyces cerevisiae strain AD3Δ ScErg11 I471T (overexpression from the PDR5 locus, native ERG11 disrupted)
T1 sequence (P10614 whole entry I471T): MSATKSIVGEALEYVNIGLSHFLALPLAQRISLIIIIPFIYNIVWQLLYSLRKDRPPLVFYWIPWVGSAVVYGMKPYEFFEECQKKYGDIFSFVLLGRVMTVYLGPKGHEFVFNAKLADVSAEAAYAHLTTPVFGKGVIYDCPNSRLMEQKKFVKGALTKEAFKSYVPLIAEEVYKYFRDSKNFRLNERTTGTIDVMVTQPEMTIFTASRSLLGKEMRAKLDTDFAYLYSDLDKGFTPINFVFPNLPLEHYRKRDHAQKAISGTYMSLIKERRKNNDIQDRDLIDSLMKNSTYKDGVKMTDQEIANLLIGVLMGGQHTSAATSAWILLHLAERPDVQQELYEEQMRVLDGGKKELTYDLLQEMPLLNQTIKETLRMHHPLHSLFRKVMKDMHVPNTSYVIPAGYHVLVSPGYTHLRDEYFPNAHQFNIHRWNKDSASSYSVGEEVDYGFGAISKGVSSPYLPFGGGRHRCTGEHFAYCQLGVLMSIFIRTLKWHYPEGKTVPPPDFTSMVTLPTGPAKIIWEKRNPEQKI
Experimental: Protein purification was carried out using established methods. In brief, a 12 L culture for each control and test strain was grown overnight in 1 L volumes of YPD medium (1% [w/v] yeast extract [BD Difco], 2% [w/v] peptone [BD Difco], and 2% [w/v] D-glucose) in baffled 3 L flasks at 30 °C, with constant agitation (140 rpm). Cells harvested by centrifugation were broken by bead-beating and crude membrane fractions obtained by differential centrifugation, as previously described. The protein concentration of the crude membranes was estimated using the Lowry assay, with bovine serum albumin (Thermo Fisher) used as the protein standard. The crude membranes (1 g at 2.5 mg/mL) were detergent-solubilized using 10× critical micelle concentration (CMC) n-decyl-β-D-maltoside (DM) (Anatrace, Maumee, OH, USA) in buffer containing 10% (w/v) glycerol, 250 mM NaCl, 20 mM Tris pH 7.5, 0.5 mM phenylmethanesulfonyl fluoride (PMSF), and 1 EDTA-free protease inhibitor pill (Roche, Basel, Switzerland) per 300 mL. When the protein was to be used to assess in vitro binding affinity for the test azoles, detergent solubilized ScLDM6×His recovered after centrifugation was affinity purified using a nickel-nitrilotriacetic acid (Ni-NTA)-agarose matrix (Qiagen). The bound ScLDM6×His was eluted from the matrix using an affinity purification buffer containing 50 mM L-histidine. The L-histidine was removed by washing the enzyme through centrifugal filtration, using a 50 kDa molecular-weight cut-off Amicon Ultra-4 filter (Sigma, Auckland, New Zealand).
The concentration of functional ScLDM6×His purified by the nickel affinity method was quantitated using the standard carbon monoxide (CO) binding method. Type II drug binding assays that measure absorbance changes due to ligand interactions with ScLDM6×His were performed for VCZ and ITC, using an established protocol. The peak429nm-trough410nm difference spectra plotted against azole concentration were used to generate drug binding curves. All calculations were performed using GraphPad Prism 5 Software.

[6] = target: wild-type and Y140F/H mutants of ScLDM6×His; parameters: method as in earlier work; settings: no significant differences, ref 5 (supplement; Sagatova et al. 2016); cited from earlier work
[7] = I471T mutant ScLDM6×His, supplement, 'in the 0.5 μM range'
[8] = I471T mutant enzyme, in the presence of 2 µM enzyme, read-out: IC50 from type II binding curves
[9] = ScLDM6×His I471T, 2 µM enzyme, (± SEM), μM, read-out: [Azole]0.5

In the case of `CCC(C)n1ncn(-c2ccc(N3CCN(c4ccc(OCC5COC(Cn6cncn6)(c6ccc(Cl)cc6Cl)O5)cc4)CC3)cc2)c1=O` (stereo not drawn) [ITC, itraconazole], the MIC80 [1] is reported as 0.0735 µM, the MIC80 [2] is reported as 0.102 µM and the “increased susceptibility compared with AD3Δ” value [2] is reported as 1.4 fold. The “MIC80/Relative Amount of ScLDM6×His” value [2] was 0.2 µM, the “fold-resistance based on the relative amount of recombinant enzyme compared with strain AD3Δ” value [2] was 1.4 × and the MIC [3] was 0.108 µM. For the same compound, the “resistance conferred, relative expression taken into account” value ([3]; ScLDM6×His Y140H I471T (0.41 of wild-type) vs AD3Δ) was 1.8 fold, the “MIC80/Relative Amount of ScLDM6×His” value [3] was 0.263 µM and the “fold-resistance based on the relative amount of recombinant enzyme compared with strain AD3Δ” value [3] was 1.8 ×. The “effect of Mdr1 inhibitor MCC1189 on azole susceptibility” value [4] was “no effect on susceptibility”, the “effect of Cdr1p inhibitor RC21v3 on azole susceptibility” value [4] was “increased susceptibility” and the “agarose diffusion susceptibility” value [4] was “resistant”. For the same compound, the Kd [5, 7] was about 0.5 µM, the IC50 [5, 8] was 0.6 to 0.8 µM and the IC50 [5, 9] was 0.79 µM. For the same compound, the ΔAmax ([5]; ScLDM6×His I471T, (± SEM)) was 0.06 (0.001), the Hill number ([5]; ScLDM6×His I471T, (± SEM)) was 1.55 (0.19) and the Kd ([5]; ScLDM6×His I471T, (± SEM)) was 0.7 µM. The Kd [6] was about 0.5 µM.
With `C[C@@H](c1ncncc1F)[C@](O)(Cn1cncn1)c1ccc(F)cc1F` [VCZ, voriconazole] the MIC80 [1] was 0.0375 µM, the MIC80 [2] was 0.074 µM and the “increased susceptibility compared with AD3Δ” value [2] was 1.2 fold. The “MIC80/Relative Amount of ScLDM6×His” value [2] was 0.145 µM, the “fold-resistance based on the relative amount of recombinant enzyme compared with strain AD3Δ” value [2] was 1.6 × and the MIC [3] was 0.25 µM. For the same compound, the “MIC80 higher than AD3Δ ScErg11 cells” value ([3]; strain AD3Δ ScErg11 Y140H I471T, not corrected for expression, p < 0.001) was “approximately 3 fold”, the “MIC80 higher than cells overexpressing ScLDM6×His Y140H” value ([3]; strain AD3Δ ScErg11 Y140H I471T, p < 0.001) was 1.5 fold and the “MIC80/Relative Amount of ScLDM6×His” value [3] was 0.609 µM. For the same compound, the “fold-resistance based on the relative amount of recombinant enzyme compared with strain AD3Δ” value [3] was 6.5 ×, the “effect of Mdr1 inhibitor MCC1189 on azole susceptibility” value [4] was “did not alter the susceptibility” and the “effect of Cdr1p inhibitor RC21v3 on azole susceptibility” value [4] was “did not alter the susceptibility”. For the same compound, the “agarose diffusion susceptibility” value [4] was “resistant”, the Kd [5, 7] was about 0.5 µM and the IC50 [5, 8] was 0.6 to 0.8 µM. For the same compound, the IC50 [5, 9] was 0.75 µM, the ΔAmax ([5]; ScLDM6×His I471T, (± SEM)) was 0.07 (0.003) and the Hill number ([5]; ScLDM6×His I471T, (± SEM)) was 1.88 (0.23). For the same compound, the Kd ([5]; ScLDM6×His I471T, (± SEM)) was 0.58 µM and the Kd [6] was about 0.5 µM.
